Laboratory results published in paper PMC6934184, “Selective DNA-PKcs inhibition extends the therapeutic index of localized radiotherapy and chemotherapy” (The Journal of Clinical Investigation, 2019).

Molecular target: T1, PIK3C2B (PI3K-C2 beta) (Homo sapiens, UniProt O00750)
T1 construct: purchased Thermo Fisher Scientific (Life Technologies) SelectScreen
Test: SelectScreen Adapta
Type: biochemical
Conditions: ATP 10 µM
Procedure, shortened: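 SelectScreen broad panel; activity (Z'LYTE, Adapta) plus binding formats. ATP: Km app for CSF1R Z'LYTE; 10 for CAMK1 Adapta. Readout = % per kinase.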

T1 sequence (O00750 whole entry): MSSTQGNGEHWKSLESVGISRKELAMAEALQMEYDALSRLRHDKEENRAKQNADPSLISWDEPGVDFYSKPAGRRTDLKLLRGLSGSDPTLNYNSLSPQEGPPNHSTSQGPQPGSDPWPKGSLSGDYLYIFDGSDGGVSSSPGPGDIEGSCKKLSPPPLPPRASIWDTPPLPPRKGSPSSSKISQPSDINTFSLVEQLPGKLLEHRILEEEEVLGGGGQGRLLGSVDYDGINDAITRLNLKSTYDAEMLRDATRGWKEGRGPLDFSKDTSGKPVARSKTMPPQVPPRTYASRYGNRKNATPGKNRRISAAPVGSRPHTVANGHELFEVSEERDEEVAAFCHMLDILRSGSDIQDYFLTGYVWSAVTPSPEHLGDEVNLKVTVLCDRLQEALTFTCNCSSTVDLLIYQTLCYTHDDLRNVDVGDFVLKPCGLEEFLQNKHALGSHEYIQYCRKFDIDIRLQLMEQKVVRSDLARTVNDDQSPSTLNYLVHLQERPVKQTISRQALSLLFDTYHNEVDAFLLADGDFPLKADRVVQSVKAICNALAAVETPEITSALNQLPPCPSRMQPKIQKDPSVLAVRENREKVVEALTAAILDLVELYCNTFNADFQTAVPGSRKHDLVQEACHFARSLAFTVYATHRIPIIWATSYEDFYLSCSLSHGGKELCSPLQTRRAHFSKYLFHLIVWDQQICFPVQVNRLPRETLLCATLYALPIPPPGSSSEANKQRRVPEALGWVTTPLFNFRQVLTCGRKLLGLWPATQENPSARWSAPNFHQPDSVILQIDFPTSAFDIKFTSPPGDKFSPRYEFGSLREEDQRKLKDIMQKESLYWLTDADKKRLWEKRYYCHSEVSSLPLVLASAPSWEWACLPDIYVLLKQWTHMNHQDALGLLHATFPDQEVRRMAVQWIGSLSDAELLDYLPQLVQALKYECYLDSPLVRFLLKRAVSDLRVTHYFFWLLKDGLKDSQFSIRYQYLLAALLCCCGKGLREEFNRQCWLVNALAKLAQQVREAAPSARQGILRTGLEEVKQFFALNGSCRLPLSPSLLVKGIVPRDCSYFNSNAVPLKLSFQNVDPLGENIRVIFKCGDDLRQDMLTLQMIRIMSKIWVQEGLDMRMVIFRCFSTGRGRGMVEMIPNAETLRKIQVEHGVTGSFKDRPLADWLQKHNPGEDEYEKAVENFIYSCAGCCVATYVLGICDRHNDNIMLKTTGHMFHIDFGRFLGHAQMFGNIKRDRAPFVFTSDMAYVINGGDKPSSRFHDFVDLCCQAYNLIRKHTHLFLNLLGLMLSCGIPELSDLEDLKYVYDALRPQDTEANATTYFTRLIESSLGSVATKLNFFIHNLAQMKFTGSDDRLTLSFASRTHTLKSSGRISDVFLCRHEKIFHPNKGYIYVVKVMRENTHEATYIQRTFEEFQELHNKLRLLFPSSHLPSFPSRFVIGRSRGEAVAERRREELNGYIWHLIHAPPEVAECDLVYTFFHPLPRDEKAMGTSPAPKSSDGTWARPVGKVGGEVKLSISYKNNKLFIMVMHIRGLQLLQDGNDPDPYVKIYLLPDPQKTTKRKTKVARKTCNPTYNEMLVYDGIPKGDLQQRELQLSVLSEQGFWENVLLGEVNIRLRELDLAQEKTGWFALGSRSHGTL

SMILES: CN(C(=O)CN1CCOCC1)c1ccc2sc3c(-c4cccc5c(=O)cc(N6CC7CCC(C6)O7)oc45)cccc3c2c1 [NU5455]
- inhibition at 1 µM: 28.9%
